These results are taken from US20080274892A1, “Novel Haloalkylsulfonanilide Derivative, Herbicide, and Method of Use Thereof” (priority 2005, published 2008).

Data set [1] deals with bulrush. The data set can be described thus: Test Example 1: herbicidal efficacy on rice paddy weeds pre-emergence. Type of data set: in vivo, Scirpus juncoides. Particulars: 21 days.
The subject of data set [2] is false pimpernel. The description is as above. Particulars: 21 days. Type of data set: in vivo, Lindernia pyxidaria.
In a further data set the test system is barnyard glass. The data set can be described thus: Test Example 2: herbicidal efficacy on rice paddy weeds post-emergence. It is filed as in vivo, Echinochloa crus-galli. Particulars: post-emergence, one leaf stage, 21 days after treatment. In outline: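 Plastic pots of 75 cm^2 were filled with clay loam soil and sown with barnyard glass and bulrush seeds, then topped with 75 cm^3 soil containing false pimpernel seeds. The pots were flooded to 5 cm water depth and held in a hot house. Twenty-one days after treatment, herbicidal efficacy was graded against an untreated control.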

Data set [3] has as its system bulrush. The description is as above. It is filed as in vivo, Scirpus juncoides. Particulars: post-emergence, one leaf stage, 21 days after treatment.
For data set [4], the system named is false pimpernel. Described as above. Particulars: post-emergence, one leaf stage, 21 days after treatment. It is filed as in vivo, Lindernia pyxidaria.
For data set [5], the system named is paddy rice plant (cultivar: Nihonbare). Put plainly: Test Example 3: phytotoxicity test for transplanted paddy rice plant. Particulars: transplanted rice, 21 days after treatment. Type of data set: in vivo. The method, boiled down: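 Clay loam soil was placed in a 75 cm^2 plastic pot and flooded to a water depth of 5 cm. Two Nihonbare paddy rice plants at the two-leaf stage were transplanted 1 cm deep and grown in a hot house. After treatment, pots stayed in the hot house for 21 days, and phytotoxicity was then graded against an untreated control.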

The mark [6] stands for this setting: dosage 1000 g/ha, treated 5 days after transplantation.

For `CC(C)COC(=O)N(c1ccccc1CN1CC(C(F)(F)F)OC1=O)S(=O)(=O)C(F)(F)F` (stereo not drawn) [Compound 1-20], the “Bulrush pre (herbicidal efficacy grade)” value in the data set with bulrush [1] (dosage 300 g/ha) is listed as 4 (90%-100% of herbicidal efficacy or phytotoxicity). In addition, in the data set on false pimpernel [2] (dosage 300 g/ha), the “False pimpernel pre (herbicidal efficacy grade)” value (from here on “False pimpernel pre”) is recorded as 3 (70%-89% of herbicidal efficacy or phytotoxicity). The “Burnyard grass post (herbicidal efficacy grade)” value (from here on “Burnyard grass post”) in the data set on barnyard glass (dosage 300 g/ha) is on record as 4 (90%-100% of herbicidal efficacy or phytotoxicity). In the data set on bulrush [3] (dosage 300 g/ha), the “Bulrush post (herbicidal efficacy grade)” value is listed as 4 (90%-100% of herbicidal efficacy or phytotoxicity). Further, the “False pimpernel post (herbicidal efficacy grade)” value (from here on “False pimpernel post”) in the data set on false pimpernel [4] (dosage 300 g/ha) was 3 (70%-89% of herbicidal efficacy or phytotoxicity). Further, the “Phytotoxicity to paddy rice” value in data set [5] (dosage 300 g/ha) was 0 (0% of herbicidal efficacy or phytotoxicity).

In the case of `CC(C)(C)C1CN(Cc2ccccc2NS(=O)(=O)C(F)(F)F)C(=O)O1` (stereo not drawn) [Compound 1-33], in the data set with bulrush [1] (dosage 1000 g/ha), the “Bulrush pre (herbicidal efficacy grade)” value is reported as 4 (90%-100% of herbicidal efficacy or phytotoxicity). In addition, the “False pimpernel pre” value with false pimpernel [2] (dosage 1000 g/ha) is 4 (90%-100% of herbicidal efficacy or phytotoxicity). Also, in the data set with barnyard glass (dosage 1000 g/ha), the “Burnyard grass post” value is recorded as 4 (90%-100% of herbicidal efficacy or phytotoxicity). In addition, the “Bulrush post (herbicidal efficacy grade)” value in the data set on bulrush [3] (dosage 1000 g/ha) is 4 (90%-100% of herbicidal efficacy or phytotoxicity). Also, the “False pimpernel post” value in the data set with false pimpernel [4] (dosage 1000 g/ha) is listed as 4 (90%-100% of herbicidal efficacy or phytotoxicity). Moreover, the “Phytotoxicity to paddy rice” value in data set [5] (setting [6]) is reported as 2 (40%-69% of herbicidal efficacy or phytotoxicity).

For the molecule `CC1N(Cc2ccccc2NS(=O)(=O)C(F)(F)F)C(=O)OC1(C)C` (stereo not drawn) [Compound 1-96], the “Bulrush pre (herbicidal efficacy grade)” value in the data set with bulrush [1] (dosage 1000 g/ha) is given as 4 (90%-100% of herbicidal efficacy or phytotoxicity). In addition, the “False pimpernel pre” value in the data set on false pimpernel [2] (dosage 1000 g/ha) was 4 (90%-100% of herbicidal efficacy or phytotoxicity). Besides, in the data set with barnyard glass (dosage 1000 g/ha), the “Burnyard grass post” value is recorded as 4 (90%-100% of herbicidal efficacy or phytotoxicity). The “Bulrush post (herbicidal efficacy grade)” value in the data set on bulrush [3] (dosage 1000 g/ha) is 4 (90%-100% of herbicidal efficacy or phytotoxicity). Also, the “False pimpernel post” value in the data set on false pimpernel [4] (dosage 1000 g/ha) is given as 4 (90%-100% of herbicidal efficacy or phytotoxicity). For the same molecule, in data set [5] (setting [6]), the “Phytotoxicity to paddy rice” value is recorded as 3 (70%-89% of herbicidal efficacy or phytotoxicity).

Regarding `CC(C)COC(=O)N(c1ccccc1CN1CC(C)(C2OC2(C)C)OC1=O)S(=O)(=O)C(F)(F)F` (stereo not drawn) [Compound 1-177], the “Bulrush pre (herbicidal efficacy grade)” value in the data set on bulrush [1] (dosage 1000 g/ha) is 4 (90%-100% of herbicidal efficacy or phytotoxicity). Further, in the data set with false pimpernel [2] (dosage 1000 g/ha), the “False pimpernel pre” value was 4 (90%-100% of herbicidal efficacy or phytotoxicity). Also, the “Burnyard grass post” value in the data set on barnyard glass (dosage 1000 g/ha) was 4 (90%-100% of herbicidal efficacy or phytotoxicity). Besides, the “Bulrush post (herbicidal efficacy grade)” value with bulrush [3] (dosage 1000 g/ha) is given as 4 (90%-100% of herbicidal efficacy or phytotoxicity). Also, in the data set with false pimpernel [4] (dosage 1000 g/ha), the “False pimpernel post” value is recorded as 4 (90%-100% of herbicidal efficacy or phytotoxicity). Further, the “Phytotoxicity to paddy rice” value in data set [5] (setting [6]) is on record as 1 (1%-39% of herbicidal efficacy or phytotoxicity).

Regarding `CCCCC1(C)CN(Cc2ccccc2NS(=O)(=O)C(F)(F)F)C(=O)O1` (racemic) [Compound 1-121], in the data set on bulrush [1] (dosage 300 g/ha), the “Bulrush pre (herbicidal efficacy grade)” value is 4 (90%-100% of herbicidal efficacy or phytotoxicity). The “False pimpernel pre” value in the data set on false pimpernel [2] (dosage 300 g/ha) is 4 (90%-100% of herbicidal efficacy or phytotoxicity). For the same molecule, in the data set with barnyard glass (dosage 300 g/ha), the “Burnyard grass post” value is listed as 1 (1%-39% of herbicidal efficacy or phytotoxicity). Also, the “Bulrush post (herbicidal efficacy grade)” value in the data set with bulrush [3] (dosage 300 g/ha) is reported as 4 (90%-100% of herbicidal efficacy or phytotoxicity). Also, the “False pimpernel post” value in the data set with false pimpernel [4] (dosage 300 g/ha) is on record as 4 (90%-100% of herbicidal efficacy or phytotoxicity). Also, the “Phytotoxicity to paddy rice” value in data set [5] (dosage 300 g/ha) was 1 (1%-39% of herbicidal efficacy or phytotoxicity).
